Test results reported in EP4549424A1, “NEW LITHIUM EXTRACTING AGENT AND LIQUID ORGANIC MIXTURE THEREOF, AND METHOD FOR EXTRACTING LITHIUM BY MEANS OF EXTRACTION” (Beijing Salt Lake Technology Development Company Limited, priority 2022, dated 2024).

assay: Liquid-liquid extraction from aqueous lithium-containing solution, ICP detection: sodium; conditions: feed B1 (cLi 0.807, cNa 56.12 g/L, pH 11.48); organic phase and phase ratio per example;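 also: sodium measured by inductively coupled plasma optical emission spectrometry in the diluted aqueous phase left after shaking with the organic phase and phase separation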

Row | Compound | cNa, remaining aqueous phase R1 [g/L] | extraction rate for sodium ions [%]
1 | 2-hydroxydibenzophenone [Example 2] | 50.23 | 10.5
2 | CCC(O)C(=O)c1ccccc1 (single isomer, unassigned) [Example 4, 2-hydroxybutyrophenone] |  | 4.8
3 | CCC(O)C(=O)c1ccccc1 (single isomer, unassigned) [Example 5, 2-hydroxybutyrophenone] |  | 6.8
4 | CC1=NN(c2ccccc2)C(=O)C1C(=O)c1ccccc1 (centres unmarked) [Comparative Example 8, 1-phenyl-3-methyl-4-benzoyl-5-pyrazolone, reference compound] |  | 4.40
5 | CC(O)C(=O)c1ccccc1 (centres unmarked) [Example 3, 2-hydroxypropiophenone] | 52.10 | 7.2
6 | CC(=O)c1ccc(OCc2ccccc2)cc1O [Example 6, 4-benzyloxy-2-hydroxyacetophenone] |  | 1.4
7 | CCCCCCOc1ccc(C(=O)c2ccccc2)c(O)c1 [Example 8, 4-hyxyloxy-2-hydroxydibenzophenone] |  | 6.5
8 | CCCCCCCOc1ccc(C(=O)c2ccccc2)c(O)c1 [Example 9, 4-heptoxy-2-hydroxydibenzophenone] |  | 6.2
9 | COc1ccc(C(=O)c2ccc(OC)cc2O)c(O)c1 [Example 28, 2,2'-dihydroxy-4,4'-dimethoxydibenzophenone] |  | 3.4

same assay, conditions: feed B2 (cLi 0.947, cNa 51.63 g/L, pH 10.77); organic phase and phase ratio per example

Row | Compound | extraction rate for sodium ions [%]
10 | 2-hydroxydibenzophenone [Example 29] | 2.32
11 | CCCCCCCCOc1ccc(C(=O)c2ccccc2)c(O)c1 [Example 10, 4-octyloxy-2-hydroxydibenzophenone] | 4.5

same assay, conditions: feed B3 (cLi 0.937, cNa 119.10, cK 43.03 g/L, pH 9.60); organic phase and phase ratio per example

Row | Compound | extraction rate for sodium ions [%] | cNa, remaining aqueous phase R1 [g/L]
12 | CC(=O)CC(=O)c1ccccc1 [Comparative Example 1, benzoyl acetone, reference compound] | 5.43 | 
13 | O=C(CC(=O)c1ccccc1)c1ccccc1 [Comparative Example 3, 1,3-diphenyl-1,3-propanedione, reference compound] | 3.17 | 115.32
14 | CCCCCCCCCCCCCCCCCC(=O)CC(=O)c1ccccc1 [Comparative Example 5, stearoylbenzoylmethane, reference compound] | 4.64 | 113.57
15 | Cc1ccc(C(=O)CC(=O)C(F)(F)F)cc1 [Comparative Example 6, 4,4,4-trifluoro-1-(4-tolyl)-1,3-butanedione, reference compound] | 3.30 | 
16 | CC1=NN(c2ccccc2)C(=O)C1C(=O)c1ccccc1 (centres unmarked) [Comparative Example 7, 1-phenyl-3-methyl-4-benzoyl-5-pyrazolone, reference compound] | 1.09 | 
17 | CCCCCCCCCCOc1ccc(C(=O)c2ccccc2)c(O)c1 [Example 11, 4-decyloxy-2-hydroxydibenzophenone] | 0.9 | 
18 | CCCCCCCCOc1cc(O)c(C(=O)c2ccccc2)cc1[N+](=O)[O-] [Example 13, 4-octyloxy-5-nitro-2-hydroxydibenzophenone] | 5.2 | 

same assay, conditions: feed B4 (cLi 0.152, cNa 34.20, cK 2.36 g/L, pH 9.14); organic phase and phase ratio per example

Row | Compound | extraction rate for sodium ions [%]
19 | 4-dodecyloxy-5-bromo-2-hydroxydibenzophenone [Example 14] | 5.8
20 | CCCCCCCCCCCCOc1cc(O)c(C(=O)c2ccccc2)cc1Br [Example 15, 4-dodecyloxy-5-bromo-2-hydroxydibenzophenone] | 6.9

same assay, conditions: feed B5 (cLi 0.261, cNa 39.98, cK 7.61 g/L, pH 9.49); organic phase and phase ratio per example

Row | Compound | extraction rate for sodium ions [%] | cNa, remaining aqueous phase R1 [g/L]
21 | CC(=O)CC(=O)c1ccccc1 [Comparative Example 2, benzoyl acetone, reference compound] | 4.45 | 
22 | O=C(CC(=O)c1ccccc1)c1ccccc1 [Comparative Example 4, 1,3-diphenyl-1,3-propanedione, reference compound] | 4.65 | 38.12
23 | CCCCCCCCOc1c([N+](=O)[O-])cc(C(=O)c2ccccc2)c(O)c1[N+](=O)[O-] [Example 16, 4-octyloxy-2,5-dinitro-2-hydroxydibenzophenone] | 12.7 | 

same assay, conditions: feed B7 (cLi 0.833, cNa 55.60, cK 5.37 g/L, pH 12.05), 26°C; organic phase and phase ratio per example

Row | Compound | cNa, remaining aqueous phase R1 [g/L] | extraction rate for sodium ions [%]
24 | 2-hydroxy-5-fluoroacetophenone [Example 40] | 49.81 | 10.4
25 | COc1cccc(O)c1C(C)=O [Example 31, 2-hydroxy-6-methoxyacetophenone] |  | 9.86
26 | CC(=O)c1cc(OCc2ccccc2)ccc1O [Example 32, 2-hydroxy-5-benzyloxyacetophenone] |  | 7.8

assay: Liquid-liquid extraction from aqueous lithium-containing solution, ICP detection: lithium; conditions: feed B1 (cLi 0.807, cNa 56.12 g/L, pH 11.48); organic phase and phase ratio per example;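 also: component concentrations in the aqueous phase were measured by inductively coupled plasma optical emission spectrometry after shaking and phase separation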

Row | Compound | cLi, remaining aqueous phase R1 [g/L] | extraction rate for lithium ions [%] | separation factor of Li/Na
27 | 2-hydroxydibenzophenone [Example 2] | 0.362 | 55.1 | 10.5
28 | CCC(O)C(=O)c1ccccc1 (single isomer, unassigned) [Example 4, 2-hydroxybutyrophenone] |  | 60.1 | 29.8
29 | CCC(O)C(=O)c1ccccc1 (single isomer, unassigned) [Example 5, 2-hydroxybutyrophenone] |  | 80.5 | 57.0
30 | CC1=NN(c2ccccc2)C(=O)C1C(=O)c1ccccc1 (centres unmarked) [Comparative Example 8, 1-phenyl-3-methyl-4-benzoyl-5-pyrazolone, reference compound] |  | 7.43 | 1.74
31 | CC(O)C(=O)c1ccccc1 (centres unmarked) [Example 3, 2-hydroxypropiophenone] | 0.383 | 52.5 | 14.3
32 | CC(=O)c1ccc(OCc2ccccc2)cc1O [Example 6, 4-benzyloxy-2-hydroxyacetophenone] |  | 34.7 | 37.7
33 | CCCCCCOc1ccc(C(=O)c2ccccc2)c(O)c1 [Example 8, 4-hyxyloxy-2-hydroxydibenzophenone] |  | 67.0 | 29.5
34 | CCCCCCCOc1ccc(C(=O)c2ccccc2)c(O)c1 [Example 9, 4-heptoxy-2-hydroxydibenzophenone] |  | 60.8 | 23.6
35 | COc1ccc(C(=O)c2ccc(OC)cc2O)c(O)c1 [Example 28, 2,2'-dihydroxy-4,4'-dimethoxydibenzophenone] |  | 83.6 | 146.7

same assay, conditions: feed B2 (cLi 0.947, cNa 51.63 g/L, pH 10.77); organic phase and phase ratio per example

Row | Compound | extraction rate for lithium ions [%] | separation factor of Li/Na
36 | 2-hydroxydibenzophenone [Example 29] | 73.3 | 72.8
37 | CCCCCCCCOc1ccc(C(=O)c2ccccc2)c(O)c1 [Example 10, 4-octyloxy-2-hydroxydibenzophenone] | 9.8 | 2.3

same assay, conditions: feed B3 (cLi 0.937, cNa 119.10, cK 43.03 g/L, pH 9.60); organic phase and phase ratio per example

Row | Compound | extraction rate for lithium ions [%] | separation factor of Li/Na | cLi, remaining aqueous phase R1 [g/L] | separation factor of Li/K
38 | CC(=O)CC(=O)c1ccccc1 [Comparative Example 1, benzoyl acetone, reference compound] | 53.0 | 19.6 |  | 
39 | O=C(CC(=O)c1ccccc1)c1ccccc1 [Comparative Example 3, 1,3-diphenyl-1,3-propanedione, reference compound] | 59.76 | 45.3 | 0.377 | 
40 | CCCCCCCCCCCCCCCCCC(=O)CC(=O)c1ccccc1 [Comparative Example 5, stearoylbenzoylmethane, reference compound] | 38.42 | 12.8 | 0.577 | 
41 | Cc1ccc(C(=O)CC(=O)C(F)(F)F)cc1 [Comparative Example 6, 4,4,4-trifluoro-1-(4-tolyl)-1,3-butanedione, reference compound] | 81.11 | 125.8 |  | 
42 | CC1=NN(c2ccccc2)C(=O)C1C(=O)c1ccccc1 (centres unmarked) [Comparative Example 7, 1-phenyl-3-methyl-4-benzoyl-5-pyrazolone, reference compound] | 1.28 | 1.17 |  | 
43 | CCCCCCCCCCOc1ccc(C(=O)c2ccccc2)c(O)c1 [Example 11, 4-decyloxy-2-hydroxydibenzophenone] | 3.1 | 3.5 |  | 
44 | CCCCCCCCOc1cc(O)c(C(=O)c2ccccc2)cc1[N+](=O)[O-] [Example 13, 4-octyloxy-5-nitro-2-hydroxydibenzophenone] | 64.7 | 33.2 |  | 39.9

same assay, conditions: feed B4 (cLi 0.152, cNa 34.20, cK 2.36 g/L, pH 9.14); organic phase and phase ratio per example

Row | Compound | extraction rate for lithium ions [%] | separation factor of Li/K | separation factor of Li/Na
45 | 4-dodecyloxy-5-bromo-2-hydroxydibenzophenone [Example 14] | 48.7 | 2.8 | 15.3
46 | CCCCCCCCCCCCOc1cc(O)c(C(=O)c2ccccc2)cc1Br [Example 15, 4-dodecyloxy-5-bromo-2-hydroxydibenzophenone] | 64.5 | 5.8 | 24.4

same assay, conditions: feed B5 (cLi 0.261, cNa 39.98, cK 7.61 g/L, pH 9.49); organic phase and phase ratio per example

Row | Compound | extraction rate for lithium ions [%] | separation factor of Li/Na | cLi, remaining aqueous phase R1 [g/L] | separation factor of Li/K
47 | CC(=O)CC(=O)c1ccccc1 [Comparative Example 2, benzoyl acetone, reference compound] | 23.4 | 6.54 |  | 
48 | O=C(CC(=O)c1ccccc1)c1ccccc1 [Comparative Example 4, 1,3-diphenyl-1,3-propanedione, reference compound] | 28.73 | 8.3 | 0.186 | 
49 | CCCCCCCCOc1c([N+](=O)[O-])cc(C(=O)c2ccccc2)c(O)c1[N+](=O)[O-] [Example 16, 4-octyloxy-2,5-dinitro-2-hydroxydibenzophenone] | 88.5 | 52.9 |  | 73.7

same assay, conditions: feed B7 (cLi 0.833, cNa 55.60, cK 5.37 g/L, pH 12.05), 26°C; organic phase and phase ratio per example

Row | Compound | cLi, remaining aqueous phase R1 [g/L] | extraction rate for lithium ions [%] | separation factor of Li/Na
50 | 2-hydroxy-5-fluoroacetophenone [Example 40] | 0.417 | 50 | 8.6
51 | COc1cccc(O)c1C(C)=O [Example 31, 2-hydroxy-6-methoxyacetophenone] |  | 53.42 | 10.5
52 | CC(=O)c1cc(OCc2ccccc2)ccc1O [Example 32, 2-hydroxy-5-benzyloxyacetophenone] |  | 46.6 | 10.3

assay: Liquid-liquid extraction from aqueous lithium-containing solution, ICP detection: potassium; conditions: feed B3 (cLi 0.937, cNa 119.10, cK 43.03 g/L, pH 9.60); organic phase and phase ratio per example;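 also: analysis by ICP optical emission spectrometry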

Row | Compound | cK, remaining aqueous phase R1 [g/L] | extraction rate for potassium ions [%]
53 | CC(=O)CC(=O)c1ccccc1 [Comparative Example 1, benzoyl acetone, reference compound] | 41.79 | 
54 | O=C(CC(=O)c1ccccc1)c1ccccc1 [Comparative Example 3, 1,3-diphenyl-1,3-propanedione, reference compound] | 43.21 | 
55 | CCCCCCCCCCCCCCCCCC(=O)CC(=O)c1ccccc1 [Comparative Example 5, stearoylbenzoylmethane, reference compound] | 41.03 | 
56 | Cc1ccc(C(=O)CC(=O)C(F)(F)F)cc1 [Comparative Example 6, 4,4,4-trifluoro-1-(4-tolyl)-1,3-butanedione, reference compound] | 42.11 | 
57 | CC1=NN(c2ccccc2)C(=O)C1C(=O)c1ccccc1 (centres unmarked) [Comparative Example 7, 1-phenyl-3-methyl-4-benzoyl-5-pyrazolone, reference compound] | 42.96 | 
58 | CCCCCCCCCCOc1ccc(C(=O)c2ccccc2)c(O)c1 [Example 11, 4-decyloxy-2-hydroxydibenzophenone] | 42.65 | 
59 | CCCCCCCCOc1cc(O)c(C(=O)c2ccccc2)cc1[N+](=O)[O-] [Example 13, 4-octyloxy-5-nitro-2-hydroxydibenzophenone] |  | 4.4

same assay, conditions: feed B4 (cLi 0.152, cNa 34.20, cK 2.36 g/L, pH 9.14); organic phase and phase ratio per example

Row | Compound | extraction rate for potassium ions [%] | cK, remaining aqueous phase R1 [g/L]
60 | 4-dodecyloxy-5-bromo-2-hydroxydibenzophenone [Example 14] | 25.0 | 
61 | CCCCCCCCCCCCOc1cc(O)c(C(=O)c2ccccc2)cc1Br [Example 15, 4-dodecyloxy-5-bromo-2-hydroxydibenzophenone] | 23.7 | 1.80

same assay, conditions: feed B5 (cLi 0.261, cNa 39.98, cK 7.61 g/L, pH 9.49); organic phase and phase ratio per example

Row | Compound | cK, remaining aqueous phase R1 [g/L] | extraction rate for potassium ions [%]
62 | CC(=O)CC(=O)c1ccccc1 [Comparative Example 2, benzoyl acetone, reference compound] | 7.52 | 
63 | O=C(CC(=O)c1ccccc1)c1ccccc1 [Comparative Example 4, 1,3-diphenyl-1,3-propanedione, reference compound] | 7.60 | 
64 | CCCCCCCCOc1c([N+](=O)[O-])cc(C(=O)c2ccccc2)c(O)c1[N+](=O)[O-] [Example 16, 4-octyloxy-2,5-dinitro-2-hydroxydibenzophenone] | 6.89 | 9.5

same assay, conditions: feed B7 (cLi 0.833, cNa 55.60, cK 5.37 g/L, pH 12.05), 26°C; organic phase and phase ratio per example

Row | Compound | cK, remaining aqueous phase R1 [g/L] | extraction rate for potassium ions [%]
65 | 2-hydroxy-5-fluoroacetophenone [Example 40] | 4.86 | 9.5
66 | COc1cccc(O)c1C(C)=O [Example 31, 2-hydroxy-6-methoxyacetophenone] |  | 3.2
67 | CC(=O)c1cc(OCc2ccccc2)ccc1O [Example 32, 2-hydroxy-5-benzyloxyacetophenone] | 5.01 | 6.7
